Values of other authors in article PMC6958329, “New ^55Co-labeled Albumin-Binding Folate Derivatives as Potential PET Agents for Folate Receptor Imaging” (Pharmaceuticals, 2019).
Where two headings read alike, the source gives them in different places.

Test system: tumor
Parameters: method as in PMID 27145400
Settings: previously reported, cited from earlier work

Nc1nc2ncc(CNc3ccc(C(=O)N[C@@H](CCC(=O)NC(CCCCNC(=O)CCC(C(=O)O)N4CCN(CC(=O)O)CCN(CC(=O)O)CC4)C(=O)NC(CCCCNC(=O)CCCc4ccc(I)cc4)C(=O)O)C(=O)O)cc3)nc2c(=O)[nH]1.[64Cu] (stereo partly drawn) [[^64Cu]Cu-rf42]
tumor uptake (4 h post-injection): 14.5% ± 1.0% | tumor uptake (24 h post-injection): 16% ± 4%

Nc1nc2ncc(CNc3ccc(C(=O)N[C@@H](CCC(=O)NC(CCCCNC(=O)CCC(C(=O)O)N4CCN(CC(=O)O)CCN(CC(=O)O)CC4)C(=O)NC(CCCCNC(=O)CCCc4ccc(I)cc4)C(=O)O)C(=O)O)cc3)nc2c(=O)[nH]1.[68Ga] (stereo partly drawn) [[^68Ga]Ga-rf42]
tumor uptake (4 h post-injection): 12% ± 2%
